How the values were obtained:
Conditions in all cases: Homo sapiens
[1] = Binding affinity to chymotrypsin (unknown origin)
[2] = Binding affinity to chymotrypsin (unknown origin) assessed as hydrolysis
[3] = Binding affinity to chymotrypsin (unknown origin) assessed as deacetylation

| Compound | log(1/Km) [1] | logKcat [2] | log K [3] | other results |
| --- | --- | --- | --- | --- |
| COC(=O)[C@@H](Cc1ccccc1)NC=O | 3.6 |  |  |  |
| CC(=O)N[C@@H](Cc1ccccc1)C(=O)O[C@H](C)c1ccccc1 | 4.3 | 2.02 |  |  |
| O=C(CNC(=O)c1ccccc1)OCc1ccncc1 | 4.04 | -0.25 |  |  |
| COC(=O)[C@H](C)NC(=O)c1cccs1 | 1.82 | -0.34 |  |  |
| COC(=O)[C@H](C)NC(C)=O | 0.21 | 0.11 |  |  |
| CC(C)C[C@H](NC(=O)OCc1ccccc1)C(=O)Oc1ccc([N+](=O)[O-])cc1 | 5.32 |  | 0.92 |  |
| CC(=O)N[C@H](C(=O)OCCCl)C(C)C | 1.72 | -0.64 |  |  |
| Nc1ccc(OC(=O)CNC(=O)c2ccccc2)cc1 | 3.77 | -0.3 |  |  |
| C[C@H](NC=O)C(=O)Oc1ccc([N+](=O)[O-])cc1 | 4.88 |  | -0.61 |  |
| COC(=O)[C@@H](C)NC(=O)c1ccccc1N | 2.8 |  |  |  |
| COC(=O)[C@@H](Cc1ccccc1)NC(C)=O |  |  |  | log1/Ki [1]: 2.64 |
| CCOC(=O)[C@@H](NC(C)=O)c1ccccc1 | 2.48 | -0.05 |  |  |
| COC(=O)[C@H](NC(C)=O)C(C)C |  |  |  | log1/Ki [1]: 0.71 |
| CC(=O)N[C@@H](Cc1ccccc1)C(=O)Oc1ccc([N+](=O)[O-])cc1 | 4.62 | 1.89 |  |  |
| CCCOC(=O)CNC(=O)c1ccccc1 | 2.72 | -0.9 |  |  |
| CCCCC(=O)Oc1ccc([N+](=O)[O-])cc1 |  |  | -1.77 |  |
| CS(=O)(=O)N[C@@H](Cc1ccccc1)C(=O)Oc1ccc(Cl)cc1 | 4.88 |  |  | log K [2]: 1.56 |
| CCCCCC(=O)Oc1ccc([N+](=O)[O-])cc1 |  |  | -1.44 |  |
| NC(=O)C[C@@H](NC(=O)OCc1ccccc1)C(=O)Oc1ccc([N+](=O)[O-])cc1 | 5.84 |  | -1.65 |  |
| CCCCOC(=O)CNC(=O)c1ccccc1 | 2.95 | -0.76 |  |  |
| COCC(=O)Oc1ccc([N+](=O)[O-])cc1 |  |  | -0.46 |  |
| O=C(CCCc1ccccc1)Oc1ccc([N+](=O)[O-])cc1 |  |  | -0.87 |  |

| Compound | log(1/Km) [1] | logKcat [2] | log K [3] | other results |
| --- | --- | --- | --- | --- |
| COC(=O)[C@@H](C)NC(=O)c1cccs1 | 2.16 |  |  |  |
| O=C(Cc1ccccc1)Oc1ccc([N+](=O)[O-])cc1 |  |  | -1.65 |  |
| CS(=O)(=O)N[C@@H](Cc1ccccc1)C(=O)Oc1ccccc1 | 4.57 | 1.51 |  |  |
| CCCC[C@H](NC(=O)OCc1ccccc1)C(=O)Oc1ccc([N+](=O)[O-])cc1 | 5.24 |  | 1.1 |  |
| NC(=O)C[C@H](NC(=O)OCc1ccccc1)C(=O)Oc1ccc([N+](=O)[O-])cc1 | 4.87 |  | 1.53 |  |
| CCC[C@@H](NC(C)=O)C(=O)OC |  |  |  | log1/Ki [1]: 0.95 |
| C[C@H](NC(=O)OCc1ccccc1)C(=O)Oc1ccc([N+](=O)[O-])cc1 | 4.7 |  | 0.48 |  |
| C[C@@H](NC(=O)OCc1ccccc1)C(=O)Oc1ccc([N+](=O)[O-])cc1 | 5.08 |  | -1.05 |  |
| O=C(N[C@@H](Cc1ccccc1)C(=O)Oc1ccc([N+](=O)[O-])cc1)OCc1ccccc1 | 6.32 |  | 1.59 |  |
| COC(=O)[C@H](C)NC(=O)c1ccccn1 | 1.74 | -1.15 |  |  |
| CC(C)CC(=O)Oc1ccc([N+](=O)[O-])cc1 |  |  | -2.9 |  |
| COC(=O)[C@H](NC(=O)c1ccccc1)C(C)C |  |  |  | log1/Ki [1]: 2.28 |
| C[C@@H](NC=O)C(=O)Oc1ccc([N+](=O)[O-])cc1 | 5.21 |  | -1.14 |  |
| COC(=O)[C@H](C)NC(=O)c1cccnc1 | 1.43 | -0.24 |  |  |
| O=CNCC(=O)Oc1ccc([N+](=O)[O-])cc1 | 4.8 |  | -0.61 |  |
| CCC[C@H](NC(=O)CCl)C(=O)OC | 2.3 |  |  |  |
| CCCC(=O)Oc1ccc([N+](=O)[O-])cc1 |  |  | -2.22 |  |
| CCCCCCC(=O)Oc1ccc([N+](=O)[O-])cc1 |  |  | -1.21 |  |
| O=C(CCCc1c[nH]c2ccccc12)Oc1ccc([N+](=O)[O-])cc1 |  |  | -0.83 |  |
| O=C(CNC(=O)c1ccccc1)Oc1cccc([N+](=O)[O-])c1 | 4.17 | -0.28 |  |  |
| CC(=O)c1ccc(OC(=O)CNC(=O)c2ccccc2)cc1 | 4.51 | -0.28 |  |  |
| CCC(=O)Oc1ccc([N+](=O)[O-])cc1 |  |  | -2.1 |  |

| Compound | log(1/Km) [1] | logKcat [2] | log K [3] | other results |
| --- | --- | --- | --- | --- |
| CCOC(=O)[C@@H](Cc1ccc(O)cc1)NC(=O)c1cccnc1 |  |  |  | log1/Ki [1]: 3.1 |
| CC[C@@H](C)OC(=O)[C@H](Cc1ccccc1)NC(C)=O | 2.76 | 1.98 |  |  |
| O=C(CCCl)Oc1ccc([N+](=O)[O-])cc1 |  |  | -1.67 |  |
| COC(=O)[C@H](C)NC(=O)c1ccncc1 | 1.54 | -0.38 |  |  |
| CCOC(=O)[C@H](C)NC(C)=O | 0.6 |  |  |  |
| CC(C)C[C@@H](NC(=O)OCc1ccccc1)C(=O)Oc1ccc([N+](=O)[O-])cc1 | 5.62 |  | -0.96 |  |
| O=C(CCCCc1ccccc1)Oc1ccc([N+](=O)[O-])cc1 |  |  | -1.68 |  |
| CC(C)(C)C(=O)Oc1ccc([N+](=O)[O-])cc1 |  |  | -3.69 |  |
| COC(=O)[C@@H](C)NC(=O)c1ccccc1 | 2.48 |  |  |  |
| O=C(CNC(=O)c1ccccc1)Oc1ccccc1 | 3.87 | -0.31 |  |  |
| CC(=O)N[C@H](C(=O)Oc1ccc([N+](=O)[O-])cc1)C(C)C | 3.31 |  |  |  |
| COC(=O)[C@@H](C)NC(=O)c1ccccn1 | 1.77 |  |  |  |
| O=COc1ccc([N+](=O)[O-])cc1 |  |  | 0.39 |  |
| CC(C)(C)CC(=O)Oc1ccc([N+](=O)[O-])cc1 |  |  | -3.82 |  |
| O=C(CCCCl)Oc1ccc([N+](=O)[O-])cc1 |  |  | -1.27 |  |
| O=C(CNC(=O)OCc1ccccc1)Oc1ccc([N+](=O)[O-])cc1 | 5.31 |  | -0.39 |  |
| COC(=O)[C@H](C)NC(=O)c1ccccc1N | 2.33 | -0.62 |  |  |
| Cc1ccc(OC(=O)[C@H](Cc2ccccc2)NS(C)(=O)=O)cc1 | 4.7 |  |  | log K [2]: 1.56 |
| O=C(CI)Oc1ccc([N+](=O)[O-])cc1 |  |  | -0.1 |  |
| CCC[C@@H](NC(=O)c1ccccc1)C(=O)OC |  |  |  | log1/Ki [1]: 2.75 |
| COC(=O)[C@@H](C)NC(=O)c1ccncc1 | 1.57 |  |  |  |
| COc1ccc(OC(=O)[C@H](Cc2ccccc2)NS(C)(=O)=O)cc1 | 4.82 | 1.54 |  |  |

| Compound | log(1/Km) [1] | logKcat [2] | log K [3] | other results |
| --- | --- | --- | --- | --- |
| CC(=O)Oc1ccc([N+](=O)[O-])cc1 |  |  | -2 |  |
| O=C(CNC(=O)c1ccccc1)Oc1ccc([N+](=O)[O-])cc1 | 4.06 | -0.31 |  |  |
| COC(=O)[C@H](C)NC(=O)c1ccc2ccccc2n1 | 3.66 | -2.4 |  |  |
| CS(=O)(=O)N[C@@H](Cc1ccccc1)C(=O)Oc1ccc([N+](=O)[O-])cc1 | 5.37 |  |  | log K [2]: 1.56 |
| COC(=O)[C@H](C)NC(=O)c1ccccc1 | 2.01 | -0.64 |  |  |
| C[C@H](OC(=O)CNC(=O)c1ccccc1)c1ccccc1 | 3.77 | -0.13 |  |  |
| CC(C)COC(=O)CNC(=O)c1ccccc1 | 2.62 | -0.78 |  |  |
| O=C(CNC(=O)c1ccccc1)Oc1ccc(F)cc1 | 3.85 | -0.28 |  |  |
| CCC[C@@H](NC(=O)OCc1ccccc1)C(=O)Oc1ccc([N+](=O)[O-])cc1 | 5.5 |  | -0.82 |  |
| CC(=O)N[C@@H](C)C(=O)Oc1ccc([N+](=O)[O-])cc1 | 3.32 |  |  |  |
| CC[C@H](C)OC(=O)CNC(=O)c1ccccc1 | 2.95 | -1.04 |  |  |
| O=C(CCl)Oc1ccc([N+](=O)[O-])cc1 |  |  | 0.47 |  |
| Cc1ccc(OC(=O)CNC(=O)c2ccccc2)cc1 | 3.87 | -0.21 |  |  |
| CC(=O)c1ccc(OC(=O)[C@H](Cc2ccccc2)NS(C)(=O)=O)cc1 | 4.89 | 1.54 |  |  |
| CCC[C@@H](NC(=O)CCl)C(=O)OC |  |  |  | log1/Ki [1]: 1.23 |
| CC(C)OC(=O)CNC(=O)c1ccccc1 | 2.69 | -1.32 |  |  |
| CCOC(=O)C[C@H](NC(C)=O)C(=O)OCC | 1.64 |  |  |  |
| O=C(CCc1ccccc1)Oc1ccc([N+](=O)[O-])cc1 |  |  | -0.73 |  |
| CC(=O)NCCCC(=O)Oc1ccc([N+](=O)[O-])cc1 |  |  | -2.21 |  |
| O=C(CCc1c[nH]c2ccccc12)Oc1ccc([N+](=O)[O-])cc1 |  |  | -0.47 |  |
| CC(C)C(=O)Oc1ccc([N+](=O)[O-])cc1 |  |  | -2.45 |  |
| CC[C@H](NC(=O)OCc1ccccc1)C(=O)Oc1ccc([N+](=O)[O-])cc1 | 5.74 |  | 0.43 |  |

| Compound | log(1/Km) [1] | logKcat [2] | log K [3] | other results |
| --- | --- | --- | --- | --- |
| COc1ccc(OC(=O)CNC(=O)c2ccccc2)cc1 | 3.99 | -0.25 |  |  |
| CC[C@H](C)OC(=O)[C@H](Cc1ccccc1)NC(C)=O | 3.04 | 1.55 |  |  |
| CCCCCCCC(=O)Oc1ccc([N+](=O)[O-])cc1 |  |  | -1.47 |  |
| O=C(Cc1c[nH]c2ccccc12)Oc1ccc([N+](=O)[O-])cc1 |  |  | -2.52 |  |
| CCC[C@H](NC(=O)OCc1ccccc1)C(=O)Oc1ccc([N+](=O)[O-])cc1 | 5.57 |  | 0.19 |  |
| CCCC(=O)NCC(=O)Oc1ccc([N+](=O)[O-])cc1 | 3.87 |  | -0.06 |  |
| O=C(N[C@H](Cc1ccccc1)C(=O)Oc1ccc([N+](=O)[O-])cc1)OCc1ccccc1 | 6.42 |  | -0.74 |  |
| CC[C@@H](C)OC(=O)CNC(=O)c1ccccc1 | 2.7 |  |  |  |
| CC[C@@H](NC(=O)OCc1ccccc1)C(=O)Oc1ccc([N+](=O)[O-])cc1 | 5.71 |  | -1.45 |  |
| O=C(CCCCCl)Oc1ccc([N+](=O)[O-])cc1 |  |  | -1.37 |  |
| CCC(=O)NCC(=O)Oc1ccc([N+](=O)[O-])cc1 | 3.95 |  | -0.25 |  |
| CC(C)[C@@H](NC(=O)OCc1ccccc1)C(=O)Oc1ccc([N+](=O)[O-])cc1 | 5.13 |  | -2.1 |  |
| CCOC(=O)CNC(=O)c1ccccc1 | 2.64 |  |  |  |
| COC(=O)[C@H](NC(=O)CCl)C(C)C |  |  |  | log1/Ki [1]: 0.77 |
| O=C(Oc1ccc([N+](=O)[O-])cc1)c1cccc([N+](=O)[O-])c1 |  |  | -2.85 |  |
| COC(=O)[C@@H](C)NC(=O)c1cccnc1 | 2.22 |  |  |  |
| CCOC(=O)[C@@H](Cc1ccc(O)cc1)NC(C)=O |  |  |  | log1/Ki [1]: 2.4 |
| CC(C)[C@H](NC(=O)OCc1ccccc1)C(=O)Oc1ccc([N+](=O)[O-])cc1 | 4.75 |  | -0.93 |  |
